{"source": "patent US10869871B2", "about": "“Compositions and methods of modulating short-chain dehydrogenase activity” (CASE WESTERN RESERVE UNIVERSITY, priority 2013, dated 2020)", "key": {"mouse bone marrow": {"tested_on": "mouse bone marrow", "experiment": "Hematopoietic colonies from wild-type mouse bone marrow treated ex vivo", "format": "cell-based", "conditions": "1 μM ex vivo on ice for 2 hours", "description": "Treated marrow is again then plated into methylcellulose for counting of hematopoietic colonies."}, "bone marrow": {"tested_on": "bone marrow", "experiment": "Homing of CFSE labeled bone marrow cells to marrow of irradiated recipient mice", "format": "in vivo, mouse", "conditions": "for effect on SW033291 induced increase of homing: co-administered with SW033291 10 mg/kg IP", "procedure": "Drugs are administered following radiation, following the transplant, and again at 8 hours after the transplant."}, "[1]": {"tested_on": "15-PGDH-luciferase fusion reporter in V9m, LS174T and V503 colon cancer cell lines", "experiment": "15-PGDH-luciferase fusion reporter induction in colon cancer cell lines", "format": "cell-based", "conditions": "for luciferase activity of 15-PGDH luciferase fusion cells: V9m, LS174T, V503, relative to DMSO"}, "15-PGDH protein": {"tested_on": "15-PGDH protein", "experiment": "Western blot of 15-PGDH protein levels in treated cell lines", "format": "cell-based", "conditions": "[…] compound for 48 hours"}, "recombinant 15-PGDH [2]": {"target": "T1, recombinant 15-PGDH (Homo sapiens (Human), UniProt P15428)", "T1 sequence (P15428 whole entry)": "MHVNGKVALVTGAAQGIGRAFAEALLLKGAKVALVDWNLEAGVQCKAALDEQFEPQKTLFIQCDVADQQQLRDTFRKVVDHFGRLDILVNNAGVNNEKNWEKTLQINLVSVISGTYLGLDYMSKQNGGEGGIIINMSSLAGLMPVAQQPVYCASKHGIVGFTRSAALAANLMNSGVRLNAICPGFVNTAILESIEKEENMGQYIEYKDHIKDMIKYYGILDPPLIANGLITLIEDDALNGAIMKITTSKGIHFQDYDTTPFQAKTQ", "experiment": "Thermal melt shift of recombinant 15-PGDH protein (SYPRO Orange)", "format": "binding"}, "[3]": {"tested_on": "PGE2 in colon, bone marrow, liver, lung", "experiment": "PGE2 in mouse tissues after IP injection", "format": "in vivo"}, "[4]": {"experiment": "Chemical stability in aqueous solutions", "format": "physicochemical", "conditions": "over broad pH range"}, "[5]": {"experiment": "Stability when incubated with liver extracts", "format": "in vitro ADME", "conditions": "incubated with mouse, rat and human liver extracts"}, "[6]": {"experiment": "Immediate toxicity after IP injection into mice", "format": "in vivo", "conditions": "injected IP into mice at 50 mg/kg body weight"}, "cell lines": {"tested_on": "cell lines", "experiment": "PGE2 production by cell lines", "format": "cell-based", "conditions": "read-out: EC50 for increase of PGE2 production by cell lines"}, "A549 cells": {"tested_on": "A549 cells", "experiment": "PGE2 levels in medium of IL1-beta stimulated A549 cells", "format": "cell-based"}, "cell culture": {"tested_on": "cell culture", "experiment": "Toxicity: concentration needed to decrease cell numbers in a cell culture assay", "format": "cell-based", "procedure": "Time to inhibition refers to the time needed to inhibit the generation of NADH by 15-PGDH from the moment with drug is added into the reaction mix. Delta Tm refers to the shift in melting temperature of recombinant 15-PGDH in the presence of drug (with cofactor NADH also present). Concentration of Full Cell Line Reporter Induction refers to the concentration of drug that needs to be added to reporter cell line to achieve maximal induction of the 15-PGDH-luciferase gene fusion reporter cassette, as measured by luciferase assays. Hepatocyte stability refers to the half-life of compound in the presence of hepatocytes in culture. Toxicity refers to the concentration of compound needed to decrease cell numbers in a cell culture assay."}, "recombinant 15-PGDH [7]": {"target": "T1, recombinant 15-PGDH", "experiment": "Inhibition of enzymatic activity of recombinant 15-PGDH in an in vitro assay", "format": "biochemical", "conditions": "FIG. 97"}, "[8]": {"tested_on": "15-PGDH-luciferase fusion protein reporter in Vaco-9M (V9M) cell line", "experiment": "15-PGDH-luciferase fusion reporter induction in Vaco-9M (V9M) cells", "format": "cell-based", "procedure": "Some residual activity is seen for isomer B when added at 3.2 μM concentration. The small residual activity of isomer A may be due to possible 3% contamination with some residual isomer B."}}}
{"compound": "CCCCC(C)(C)[C@H](O)/C=C/[C@H]1[C@H](O)CC(=O)[C@@H]1C/C=C\\CCCC(=O)O", "note": "[dmPGE2, 16,16-dimethyl PGE2]", "values": [{"measurement": "increase in number of bone marrow derived colonies relative to SW033291", "setting": "mouse bone marrow", "value": "slightly greater increase"}]}
{"compound": "COc1ccc2cc(OCC3(C(=O)O)CN(C(=O)c4ccc(F)cc4)C3)ccc2c1", "note": "[PF-04418948]", "values": [{"measurement": "effect on SW033291 induced increase of homing", "setting": "bone marrow", "value": "partially blocked"}]}
{"compound": "COc1ccc(OC)c(N(CC(=O)Nc2cccnc2)S(=O)(=O)c2ccccc2)c1", "note": "[SW054384]", "values": [{"measurement": "luciferase activity of 15-PGDH luciferase fusion cells", "setting": "[1]", "value": "increase luciferase activity"}, {"measurement": "levels of 15-PGDH protein (western blot)", "setting": "15-PGDH protein", "value": "increase levels of 15-PGDH protein"}, {"measurement": "direct binding to 15-PGDH by melting temperature shift", "setting": "recombinant 15-PGDH [2]; 10 μM and 100 μM cofactor NAD or NADH", "value": "cannot be demonstrated to bind 15-PGDH"}]}
{"compound": "CCCC[S+]([O-])c1sc2nc(-c3nccs3)cc(-c3cnc(C)n3C)c2c1N", "note": "(stereo not shown) [formula (XIII)]", "values": [{"measurement": "PGE2 levels in colon, lung, liver and bone marrow", "setting": "[3]; IP dose of 10 mg/kg body weight", "value": "elevates PGE2 levels"}, {"measurement": "homing of hematopoietic stem cells following bone marrow transplantation", "setting": "bone marrow; mouse, 10 mg/kg body weight", "value": "increases homing of hematopoietic stem cells"}, {"measurement": "chemical stability in aqueous solutions", "setting": "[4]", "value": "chemically stable in aqueous solutions over broad pH range"}, {"measurement": "chemical stability with liver extracts", "setting": "[5]", "value": "chemically stable when incubated with mouse, rat and human liver extracts"}, {"measurement": "immediate toxicity over 24 hours", "setting": "[6]", "value": "no immediate toxicity"}, {"measurement": "EC50", "setting": "cell lines", "value": "~20", "unit": "nM"}]}
{"compound": "O=C(c1ccc2nc(-c3ccccc3)c(-c3ccccc3)nc2c1)N1CCCCC1", "note": "[SW145753]", "values": [{"measurement": "luciferase activity of 15-PGDH luciferase fusion cells", "setting": "[1]", "value": "increase luciferase activity"}, {"measurement": "levels of 15-PGDH protein (western blot)", "setting": "15-PGDH protein", "value": "increase levels of 15-PGDH protein"}, {"measurement": "PGE2 level in medium, reflecting 15-PGDH activity", "setting": "A549 cells; IL1-beta 23 hours, compound added for last 5 hours", "value": "clear inhibition of 15-PGDH activity"}]}
{"compound": "(+) SW209415", "values": [{"measurement": "peak PGE2 levels in lung, liver, colon and bone marrow", "setting": "[3]; IP 0.5, 1.5 or 5 mg/kg, peak at 3 hours", "value": "approximately double those of vehicle control"}]}
{"compound": "CCCC[S+]([O-])c1sc2nc(-c3nccs3)cc(-c3cnc(C)n3C)c2c1N", "note": "(stereo not shown) [SW209415, 2-(butylsulfinyl)-4-(1,2-dimethyl-1H-imidazol-5-yl)-6-(thiazol-2-yl)thieno[2,3-b]pyridin-3-amine]", "values": [{"measurement": "increase of homed cells in recipient mouse bone marrow", "setting": "bone marrow; 10 mg/kg IP, FACS 16 hours post-transplant", "value": "approximately 2.5 fold"}]}
{"compound": "CCCC[S+]([O-])c1sc2nc(-c3cccs3)ccc2c1N", "note": "(stereo not shown) [SW206980]", "values": [{"measurement": "highest PGE2 level achieved in medium", "setting": "A549 cells; IL-1β 16 h, compound 8 h", "value": 2500, "unit": "pg/mL"}, {"measurement": "Toxicity", "setting": "cell culture", "value": ">7.5", "unit": "µM"}]}
{"compound": "CCCC[S+]([O-])c1sc2nc(-c3nccs3)ccc2c1N", "note": "(stereo not shown) [SW206992]", "values": [{"measurement": "Concentration for Full Cell Line Reporter Induction", "setting": "[1]; concentration to achieve maximal induction of 15-PGDH-luciferase reporter", "value": ">1", "unit": "µM"}, {"measurement": "concentration at which maximal PGE2 effect attained", "setting": "A549 cells; IL-1β 16 h, compound 8 h", "value": 2.5, "unit": "µM"}, {"measurement": "highest PGE2 level achieved in medium", "setting": "A549 cells; IL-1β 16 h, compound 8 h", "value": 2100, "unit": "pg/mL"}, {"measurement": "Toxicity", "setting": "cell culture", "value": ">7.5", "unit": "µM"}]}
{"compound": "COc1ccc2c(c1)c(CC(=O)O)c(C)n2C(=O)c1ccc(Cl)cc1", "note": "[indomethacin]", "values": [{"measurement": "effect on SW033291 induced increase of homing", "setting": "bone marrow", "value": "near completely blocked"}]}
{"compound": "CCCCc1nn(-c2ccccc2C(F)(F)F)c(=O)n1Cc1ccc(-c2ccccc2S(=O)(=O)NC(=O)c2sccc2C)cc1", "note": "[L-161,982]", "values": [{"measurement": "effect on SW033291 induced increase of homing", "setting": "bone marrow", "value": "near completely blocked"}]}
{"compound": "CCCCC[C@H](O)/C=C/[C@H]1[C@H](O)CC(=O)[C@@H]1C/C=C\\CCCC(=O)O", "note": "[PGE2, prostaglandin E2]", "values": [{"measurement": "increase in number of bone marrow derived colonies relative to SW033291", "setting": "mouse bone marrow", "value": "lesser increase"}]}
{"compound": "CCCC[S@](C)(O)c1sc2nc(-c3cccs3)cc(-c3ccccc3)c2c1N", "note": "[SW033291 isomer B]", "values": [{"measurement": "IC50 lower than the parent racemic mixture", "setting": "recombinant 15-PGDH [7]", "value": 40, "unit": "%"}, {"measurement": "concentration giving full reporter activity", "setting": "[8]", "value": 0.1, "unit": "µM"}, {"measurement": "melting temperature of 15-PGDH", "setting": "recombinant 15-PGDH [2]; Differential Scanning Fluorimetry, DMSO control 50.5° C.", "value": 68, "unit": "°C"}]}
